Measurements published in ChEMBL document CHEMBL4251560, “The Novel 4-Phenyl-2-Phenoxyacetamide Thiazoles modulates the tumor hypoxia leading to the crackdown of neoangiogenesis and evoking the cell death” (Eur J Med Chem, 2018).
pIC50: −log10 of the molar value.

How the values were obtained:
Type in all cases: functional, cell-based
MCF7 [1] = test: Cytotoxicity against human MCF7 cells assessed as reduction in cell viability after 48 hrs by MTT assay; conditions: MCF7, 48 h
[2] = Cytotoxicity against mouse DLA cells assessed as reduction in cell viability after 48 hrs by MTT assay
MCF7 [3] = test: Cytotoxicity against human MCF7 cells assessed as reduction in cell viability after 48 hrs by trypan blue exclusion assay; conditions: MCF7, 48 h
MDA-MB-468 [4] = test: Cytotoxicity against human MDA-MB-468 cells assessed as reduction in cell viability after 48 hrs by MTT assay; conditions: MDA-MB-468, 48 h
Ehrlich [5] = test: Cytotoxicity against mouse EAC cells assessed as reduction in cell viability after 48 hrs by trypan blue exclusion assay
[6] = Cytotoxicity against mouse DLA cells assessed as reduction in cell viability after 48 hrs by trypan blue exclusion assay
MDA-MB-468 [7] = test: Cytotoxicity against human MDA-MB-468 cells assessed as reduction in cell viability after 48 hrs by trypan blue exclusion assay; conditions: MDA-MB-468, 48 h
Ehrlich [8] = test: Cytotoxicity against mouse EAC cells assessed as reduction in cell viability after 48 hrs by MTT assay
A549 [9] = test: Cytotoxicity against human A549 cells assessed as reduction in cell viability after 48 hrs by MTT assay; conditions: A549, 48 h
A549 [10] = test: Cytotoxicity against human A549 cells assessed as reduction in cell viability after 48 hrs by trypan blue exclusion assay; conditions: A549, 48 h

Structure (SMILES) | pIC50 (MCF7 [1]) | pIC50 [2] | pIC50 (MCF7 [3]) | pIC50 (MDA-MB-468 [4]) | pIC50 (Ehrlich [5]) | pIC50 [6] | pIC50 (MDA-MB-468 [7]) | pIC50 (Ehrlich [8]) | pIC50 (A549 [9]) | pIC50 (A549 [10])
O=c1[nH]cc(F)c(=O)[nH]1 [FLUOROURACIL] | 4.99 | 4.97 | 4.97 | 4.35 | 5.02 | 4.97 | 4.35 | 5.04 |  | 
Cc1cc(Cl)ccc1OCC(=O)Nc1nc(-c2ccc(Cl)cc2)cs1 | 4.39 | 4.40 | 4.40 | 4.28 | 4.28 | 4.39 | 4.28 | 4.28 | 4.36 | 4.37
Cc1ccc(-c2csc(NC(=O)COc3ccccc3C)n2)cc1 | 4.27 | 4.33 | 4.27 | 4.28 | 4.26 | 4.33 | 4.29 | 4.26 | 4.29 | 4.30
O=C(COc1ccc(Br)cc1)Nc1nc(-c2ccc(Br)cc2)cs1 | 4.35 | 4.28 | 4.35 | 4.38 | 4.39 | 4.28 | 4.39 | 4.38 | 4.33 | 4.33
Cc1ccc(-c2csc(NC(=O)COc3ccc(Br)cc3)n2)cc1 | 4.41 | 4.28 | 4.41 | 4.39 | 4.31 | 4.29 | 4.40 | 4.32 | 4.43 | 4.43
O=C(COc1ccc(F)cc1F)Nc1nc(-c2ccc(Cl)cc2)cs1 | 4.59 | 4.58 | 4.60 | 4.48 | 4.58 | 4.58 | 4.49 | 4.58 | 4.58 | 4.58
CC(C)c1ccccc1OCC(=O)Nc1nc(-c2ccc(Br)cc2)cs1 | 4.37 | 4.34 | 4.36 | 4.29 | 4.30 | 4.35 | 4.30 | 4.29 | 4.32 | 4.31
Cc1ccc(-c2csc(NC(=O)COc3ccccc3)n2)cc1 | 4.37 | 4.28 | 4.37 | 4.26 | 4.30 | 4.29 | 4.26 | 4.30 | 4.38 | 4.39
O=C(COc1ccccc1)Nc1nc(-c2ccc(Br)cc2)cs1 | 4.27 | 4.22 | 4.27 | 4.43 | 4.43 | 4.25 | 4.43 | 4.43 | 4.28 | 4.28
CC(C)c1ccccc1OCC(=O)Nc1nc(-c2ccc(Cl)cc2)cs1 | 4.73 | 4.39 | 4.74 | 4.27 | 4.30 | 4.40 | 4.26 | 4.30 | 4.75 | 4.77
Cc1ccc(OCC(=O)Nc2nc(-c3ccc(Cl)cc3)cs2)cc1 | 4.31 | 4.28 | 4.31 | 4.29 | 4.40 | 4.28 | 4.30 | 4.39 | 4.34 | 4.35
O=C(COc1ccc(Cl)cc1)Nc1nc(-c2ccc(Br)cc2)cs1 | 4.39 | 4.22 | 4.38 | 4.28 | 4.39 | 4.25 | 4.29 | 4.40 | 4.34 | 4.33
O=C(COc1ccc(Cl)cc1)Nc1nc(-c2ccc(Cl)cc2)cs1 | 4.35 | 4.27 | 4.36 | 4.26 | 4.28 | 4.28 | 4.25 | 4.28 | 4.30 | 4.31
O=C(COc1ccc(F)cc1)Nc1nc(-c2ccc(Br)cc2)cs1 | 4.26 | 4.37 | 4.25 | 4.28 | 4.34 | 4.36 | 4.29 | 4.34 | 4.28 | 4.29
Cc1ccc(OCC(=O)Nc2nc(-c3ccc(C)cc3)cs2)cc1 | 4.38 | 4.40 | 4.38 | 4.43 | 4.35 | 4.40 | 4.43 | 4.34 | 4.32 | 4.31
O=C(COc1ccc(Br)cc1)Nc1nc(-c2ccc(Cl)cc2)cs1 | 4.28 | 4.39 | 4.28 | 4.35 | 4.29 | 4.40 | 4.29 | 4.28 | 4.26 | 4.26
Cc1ccc(-c2csc(NC(=O)COc3ccc(Cl)cc3)n2)cc1 | 4.36 | 4.28 | 4.36 | 4.35 | 4.38 | 4.28 | 4.35 | 4.37 | 4.36 | 4.35
O=C(COc1ccccc1)Nc1nc(-c2ccc(Cl)cc2)cs1 | 4.22 | 4.27 | 4.25 | 4.26 | 4.25 | 4.27 | 4.35 | 4.26 | 4.37 | 4.37
O=C(COc1ccc(F)cc1F)Nc1nc(-c2ccc(Br)cc2)cs1 | 4.28 | 4.25 | 4.28 | 4.35 | 4.35 | 4.26 | 4.35 | 4.35 | 4.23 | 4.23
Cc1ccc(-c2csc(NC(=O)COc3ccc(Cl)c(C)c3)n2)cc1 | 4.39 | 4.22 | 4.38 | 4.27 | 4.23 | 4.23 | 4.26 | 4.23 | 4.35 | 4.35
Cc1ccc(-c2csc(NC(=O)COc3ccccc3C(C)C)n2)cc1 | 4.31 | 4.28 | 4.31 | 4.26 | 4.37 | 4.28 | 4.25 | 4.37 | 4.35 | 4.35
Cc1ccc(OCC(=O)Nc2nc(-c3ccc(Br)cc3)cs2)cc1 | 4.28 | 4.37 | 4.28 | 4.35 | 4.26 | 4.36 | 4.35 | 4.25 | 4.23 | 4.23
Cc1ccc(-c2csc(NC(=O)COc3ccc(F)cc3)n2)cc1 | 4.74 | 4.72 | 4.74 | 4.60 | 4.74 | 4.74 | 4.61 | 4.74 | 4.71 | 4.72
Cc1ccccc1OCC(=O)Nc1nc(-c2ccc(Cl)cc2)cs1 | 4.21 | 4.31 | 4.20 | 4.40 | 4.20 | 4.31 | 4.28 | 4.21 | 4.19 | 4.19
CC(C)c1ccc(OCC(=O)Nc2nc(-c3ccc(Cl)cc3)cs2)c(C(C)C)c1 | 4.40 | 4.27 | 4.39 | 4.38 | 4.20 | 4.27 | 4.39 | 4.21 | 4.31 | 4.31
Cc1ccccc1OCC(=O)Nc1nc(-c2ccc(Br)cc2)cs1 | 4.40 | 4.21 | 4.40 | 4.35 | 4.35 | 4.20 | 4.35 | 4.35 | 4.30 | 4.30
Cc1cc(OCC(=O)Nc2nc(-c3ccc(Br)cc3)cs2)ccc1Cl | 4.28 | 4.40 | 4.29 | 4.28 | 4.33 | 4.40 | 4.29 | 4.32 | 4.28 | 4.29
O=C(COc1ccc(F)cc1)Nc1nc(-c2ccc(Cl)cc2)cs1 | 4.45 | 4.44 | 4.45 | 4.38 | 4.44 | 4.45 | 4.37 | 4.45 | 4.44 | 4.44
